From US4155931A, “Ureylene phenylene anionic naphthalenesulfonic acids” (American Cyanamid Company, priority 1978, dated 1979)
Where a name gives a salt, the structure may show the parent alone.

How the values were obtained:
whole complement = test: Complement Level Reduction Test: whole complement in serum of dosed guinea pigs, capillary tube assay; format: in vivo; conditions: guinea pig, intraperitoneal, 200 mg/kg
activated human C1 = activated human C1 (Homo sapiens, UniProt P09871); test: Test Code 026 (C1 inhibitor): ability of activated human C1 to destroy fluid phase human C2 in the presence of C4; format: biochemical; conditions: two-fold serial dilution assay, higher well number indicates higher activity
Source text: (§1) An active inhibitor protects C2 from C1 and C4; (ii) Test Code 035 (C3-C9 inhibitor)--This test determines the ability of the late components of human complement (C3-C9) to lyse EAC 142 in the presence of appropriate dilutions of the test compound. An active inhibitor protects EAC 142 from lysis by human C3-C9; (iii) Test Code 036 (C-Shunt inhibitor)--In this test human erythrocytes rendered fragile are lysed in autologous serum via the shunt pathway activated by cobra venom factor in the presence of appropriate dilutions of the test compound. Inhibition of the shunt pathway results in failure of lysis; (iv) Forssman Vasculitis Test--Here, the well known complement dependent lesion, Forssman vasculitis, is produced in guinea pigs by intradermal injection of rabbit anti-Forssman antiserum. The lesion is measured in terms of diameter, edema and hemorrhage and the extent to which a combined index of these is inhibited by prior intraperitoneal injection of the test compound at 200 mg/kg is then reported, unless otherwise stated; (v) Forssman Shock Test--Lethal shock is produced in guinea pigs by an i.v. injection of anti-Forssman antiserum and the harmonic mean death time of treated guinea pigs is compared with that of simultaneous controls; (vi) Complement Level Reduction Test--In this test, the above dosed guinea pigs, or others, are bled for serum and the complement level is determined in undiluted serum by the capillary tube method of U.S. Pat. No. 3,876,376 and compared to undosed control guinea pigs; and (vii) Cap 50 Test--Here, appropriate amounts of the test compound are added to a pool of guinea pig serum in vitro, after which the undiluted serum capillary tube assay referred to above is run. The concentration of compound inhibiting 50% is reported.
(§2) **Activity in wells a serial dilution assay. Higher well number indicates
(§3) higher activity. The serial dilutions are two-fold.

[1] = tested on: late components of human complement (C3-C9); test: Test Code 035 (C3-C9 inhibitor, C-Late): lysis of EAC 142 by late components of human complement; format: cell-based; conditions: two-fold serial dilution assay
Source text: as §1, §2, §3

shunt pathway = test: Test Code 036 (C-Shunt inhibitor): lysis of fragile human erythrocytes in autologous serum via shunt pathway activated by cobra venom factor; format: cell-based; conditions: Table II (intermediates); two-fold serial dilution assay
Source text: as §1, §2, §3

[2] = reported in literature; cited from earlier work
complement system = conditions: reported in literature or known; cited from earlier work
[3] = tested on: total hemolytic complement activity of human serum; conditions: in vitro and in vivo, reported in literature; cited from earlier work
[4] = Table I, higher well number indicates higher activity

## Cc1ccc(C(=O)Nc2ccc(S(=O)(=O)O)c3cc(S(=O)(=O)O)cc(S(=O)(=O)O)c23)cc1NC(=O)c1cc(NC(=O)Nc2cc(C(=O)O)cc(C(=O)Nc3cc(C(=O)Nc4ccc(S(=O)(=O)O)c5cc(S(=O)(=O)O)cc(S(=O)(=O)O)c45)ccc3C)c2)cc(C(=O)O)c1 [5,5"-Ureylenebis[2'-methyl-5"-[(4,6,8-trisulfo-1-naphthyl)carbamoyl]isophthalanilic acid], octasodium salt]
Whole complement; 30 minutes
  % Inhibition: -17%
Whole complement; 60 minutes
  % Inhibition: -50%
Whole complement; 120 minutes
  % Inhibition: -57%
Activated human C1; Table I
  Cl 026 (C1 inhibitor): +5 Wells
[1]; [4]
  C-Late 035 (C3-C9 inhibitor): +2 Wells

## Nc1ccc(C(=O)Nc2cccc(S(=O)(=O)Nc3cc(S(=O)(=O)O)cc4cc(S(=O)(=O)O)cc(S(=O)(=O)O)c34)c2)c(S(=O)(=O)O)c1 [8-[N^3-(4-Amino-2-sulfobenzoyl)metanilamido]-1,3,6-naphthalenetrisulfonic acid, tetrasodium salt]
Activated human C1; Table II (intermediates)
  Cl 026 (C1 inhibitor): +3 Wells
Shunt pathway
  Shunt Inhibition 036: N
[1]; Table II (intermediates)
  C-Late 035 (C3-C9 inhibitor): N

## Cc1ccc(C(=O)Nc2ccc(S(=O)(=O)[O-])c3cc(S(=O)(=O)[O-])cc(S(=O)(=O)[O-])c23)cc1NC(=O)c1ccc(NC(=O)Nc2ccc(C(=O)Nc3cc(C(=O)Nc4ccc(S(=O)(=O)[O-])c5cc(S(=O)(=O)[O-])cc(S(=O)(=O)[O-])c45)ccc3C)c(S(=O)(=O)[O-])c2)cc1S(=O)(=O)[O-].[Na+].[Na+].[Na+].[Na+].[Na+].[Na+].[Na+].[Na+] [8,8'-[Ureylenebis[[(2-sulfo-4,1-phenylenecarbonyl)imino]-(4-methyl-3,1-phenylenecarbonyl)imino]]di-1,3,5-naphthalenetrisulfonic acid, octasodium salt]
Activated human C1; Table I
  Cl 026 (C1 inhibitor): +3 Wells
[1]; [4]
  C-Late 035 (C3-C9 inhibitor): +1 Wells

## NC[C@H]1CC[C@H](C(=O)O)CC1 [tranexamic acid]
[2]
  use in treatment of hereditary angioneurotic edema: used with success in the treatment of hereditary angioneurotic edema

## Cc1ccc(NC(=O)c2ccc(N)cc2S(=O)(=O)O)cc1S(=O)(=O)Nc1cc(S(=O)(=O)O)cc2cc(S(=O)(=O)O)cc(S(=O)(=O)O)c12 [8-[5-(4-Amino-2-sulfobenzamido)-o-toluenesulfonamido]-1,3,6-naphthalenetrisulfonic acid, tetrasodium salt]
Activated human C1; Table II (intermediates)
  Cl 026 (C1 inhibitor): +4 Wells
Shunt pathway
  Shunt Inhibition 036: N
[1]; Table II (intermediates)
  C-Late 035 (C3-C9 inhibitor): N

## Cc1ccc(C(=O)Nc2cc(C(=O)O)cc(C(=O)Nc3ccc(S(=O)(=O)O)c4cc(S(=O)(=O)O)cc(S(=O)(=O)O)c34)c2)cc1NC(=O)Nc1cc(C(=O)Nc2cc(C(=O)O)cc(C(=O)Nc3ccc(S(=O)(=O)O)c4cc(S(=O)(=O)O)cc(S(=O)(=O)O)c34)c2)ccc1C [5,5'-Ureylenebis[(4-methyl-3,1-phenylenecarbonyl)imino]bis[N-(4,6,8-trisulfo-1-naphthyl)isophthalamic acid], hexasodium slt]
Activated human C1; Table I
  Cl 026 (C1 inhibitor): +5 Wells
[1]; [4]
  C-Late 035 (C3-C9 inhibitor): +2 Wells

## Cc1cc(C)c(S(=O)(=O)Nc2cc(S(=O)(=O)[O-])cc3cc(S(=O)(=O)[O-])cc(S(=O)(=O)[O-])c23)cc1NC(=O)c1ccc(NC(=O)Nc2ccc(C(=O)Nc3cc(S(=O)(=O)Nc4cc(S(=O)(=O)[O-])cc5cc(S(=O)(=O)[O-])cc(S(=O)(=O)[O-])c45)c(C)cc3C)c(S(=O)(=O)[O-])c2)cc1S(=O)(=O)[O-].[Na+].[Na+].[Na+].[Na+].[Na+].[Na+].[Na+].[Na+] [8,8'-[Ureylenebis[(2-sulfo-4,1-phenylenecarbonyl)imino(4,6-dimethyl-3,1-phenylenesulfonyl)imino]]di-1,3,6-naphthalenetrisulfonic acid, octasodium salt]
Activated human C1; Table I
  Cl 026 (C1 inhibitor): +5 Wells
[1]; [4]
  C-Late 035 (C3-C9 inhibitor): +2 Wells

## Cc1ccc(C(=O)Nc2ccc(S(=O)(=O)O)c3cc(S(=O)(=O)O)cc(S(=O)(=O)O)c23)cc1NC(=O)c1ccc(N)cc1S(=O)(=O)O [8-[3-(4-Amino-2-sulfobenzamido)-p-toluamido]-1,3,5-naphthalenetrisulfonic acid, tetrasodium salt]
Activated human C1; Table II (intermediates)
  Cl 026 (C1 inhibitor): +2 Wells
Shunt pathway
  Shunt Inhibition 036: N
[1]; Table II (intermediates)
  C-Late 035 (C3-C9 inhibitor): N

## Nc1ccc2cc(S(=O)(=O)[O-])cc(O)c2c1N=Nc1ccc(NC(=O)Nc2ccc(N=Nc3c(N)ccc4cc(S(=O)(=O)[O-])cc(O)c34)c(S(=O)(=O)[O-])c2)cc1S(=O)(=O)[O-].[Na+].[Na+].[Na+].[Na+] [chlorazol fast pink, 3,3'-ureylenebis[6-(2-amino-8-hydroxy-6-sulfo-1-naphthylazo)benzenesulfonic acid], tetrasodium salt]
Complement system
  complement inhibitor / anticomplementary effect: anticomplementary effect

## Cc1ccc(C(=O)Nc2ccc(S(=O)(=O)[O-])c3cc(S(=O)(=O)[O-])cc(S(=O)(=O)[O-])c23)cc1NC(=O)c1cc(NC(=O)Nc2cc(C(=O)O)cc(C(=O)Nc3cc(C(=O)Nc4ccc(S(=O)(=O)[O-])c5cc(S(=O)(=O)[O-])cc(S(=O)(=O)[O-])c45)ccc3C)c2)cc(C(=O)O)c1.[Na+].[Na+].[Na+].[Na+].[Na+].[Na+] [5,5"-Ureylenebis[2'-methyl-5'-[(4,6,8-trisulfo-1-naphthyl)carbamoyl]isophthalanilic acid], hexasodium salt]
Activated human C1; Table I
  Cl 026 (C1 inhibitor): +5 Wells
[1]; [4]
  C-Late 035 (C3-C9 inhibitor): +2 Wells

## Cc1ccc(S(=O)(=O)Nc2ccc(S(=O)(=O)[O-])c3cc(S(=O)(=O)[O-])cc(S(=O)(=O)[O-])c23)cc1NC(=O)c1cc(N)cc(C(=O)O)c1.[Na+].[Na+].[Na+] [5-Amino-2'-methyl-5'-(4,6,8-trisulfo-1-naphthylsulfamoyl)-isophthalanilic acid, trisodium salt]
Activated human C1; Table II (intermediates)
  Cl 026 (C1 inhibitor): +2 Wells
Shunt pathway
  Shunt Inhibition 036: N
[1]; Table II (intermediates)
  C-Late 035 (C3-C9 inhibitor): N

## heparin
Complement system
  complement inhibitor / anticomplementary effect: anticomplementary effect

## pentosan-polysulfoester
[3]
  anticomplementary activity of human serum (reduction in total hemolytic complement activity): anticomplementary activity of human serum

## Cc1ccc(C(=O)Nc2cc(C(=O)O)cc(C(=O)Nc3ccc(S(=O)(=O)O)c4cc(S(=O)(=O)O)cc(S(=O)(=O)O)c34)c2)cc1N [5-(3-Amino-p-toluamido)-N-(4,6,8-trisulfo-1-naphthyl)isophthalamic acid, trisodium salt]
Activated human C1; Table II (intermediates)
  Cl 026 (C1 inhibitor): +3 Wells
Shunt pathway
  Shunt Inhibition 036: N
[1]; Table II (intermediates)
  C-Late 035 (C3-C9 inhibitor): N

## NCCCCCC(=O)O [epsilon-aminocaproic acid]
[2]
  use in treatment of hereditary angioneurotic edema: used with success in the treatment of hereditary angioneurotic edema

## Cc1ccc(C(=O)Nc2ccc(S(=O)(=O)O)c3cc(S(=O)(=O)O)cc(S(=O)(=O)O)c23)cc1NC(=O)c1cc(N)cc(C(=O)O)c1 [5-Amino-2'-methyl-5'-[(4,6,8-trisulto-1-naphthyl)carbamoyl]isophthalanilic acid, trisodium salt]
Activated human C1; Table II (intermediates)
  Cl 026 (C1 inhibitor): +2 Wells
Shunt pathway
  Shunt Inhibition 036: N
[1]; Table II (intermediates)
  C-Late 035 (C3-C9 inhibitor): N

## Cc1ccc(C(=O)Nc2ccc(S(=O)(=O)O)c3cc(S(=O)(=O)O)cc(S(=O)(=O)O)c23)cc1NC(=O)c1cccc(NC(=O)Nc2cccc(C(=O)Nc3cc(C(=O)Nc4ccc(S(=O)(=O)O)c5cc(S(=O)(=O)O)cc(S(=O)(=O)O)c45)ccc3C)c2)c1 [Suramin, reference compound]
Activated human C1; Table I
  Cl 026 (C1 inhibitor): +4 Wells
Complement system
  complement inhibitor / anticomplementary effect: moderately active as a complement inhibitor
[1]; [4]
  C-Late 035 (C3-C9 inhibitor): +2 Wells

## Cc1ccc(NC(=O)c2ccc(NC(=O)Nc3ccc(C(=O)Nc4ccc(C)c(S(=O)(=O)Nc5cc(S(=O)(=O)O)cc6cc(S(=O)(=O)O)cc(S(=O)(=O)O)c56)c4)c(S(=O)(=O)O)c3)cc2S(=O)(=O)O)cc1S(=O)(=O)Nc1cc(S(=O)(=O)O)cc2cc(S(=O)(=O)O)cc(S(=O)(=O)O)c12 [8,8'-[Ureylenebis[[(2-sulfo-4,1-phenylenecarbonyl)imino](2-methyl-4,1-phenylene)sulfonyl]imino]]di-1,3,6-naphthalenetrisulfonic acid, octasodium salt]
Activated human C1; Table I
  Cl 026 (C1 inhibitor): +4 Wells
[1]; [4]
  C-Late 035 (C3-C9 inhibitor): +2 Wells
